Measured values reported in patent US8680059B2, “Oligopeptide acetate and formulations thereof” (Biotempt B.V., priority 1998, dated 2014).
Values joined by “and” are separate entries in the source; they are usually repeats but may differ in a detail not shown here. Equal values may be shown once.

Key:
[1] = test system: BALB/c mice injected i.p. with LPS (E. coli 026:B6); experiment: LPS-induced septic shock (endotoxin model) in BALB/c mice; type: in vivo, mouse
Method: Mice used in sepsis or septic shock experiments: Female BALB/c mice of 8-12 weeks of age were used for all experiments. The animals were bred in our facility under specific pathogen-free conditions according to the protocols described in the Report of European Laboratory Animal Science Associations (FELASA) Working group on Animal Health (Laboratory Animals 28: 1-24, 1994).
Injection protocols: For the endotoxin model, BALB/c mice were injected i.p. with 150-300 μg LPS (E. coli 026:B6; Difco Lab., Detroit, Mich., USA). Control groups were treated with PBS i.p. only. To test the effect of peptides, they were dissolved in PBS and injected i.p. at predetermined points in time after LPS treatment.
Mice were scored for sickness severity using the following measurement scheme: • 0 No abnormalities. • 1 Percolated fur, but no detectable behavior differences compared to normal mice. • 2 Percolated fur, huddle reflex, responds to stimuli (such as tap on cage), just as active during handling as healthy mouse. • 3 Slower response to tap on cage, passive or docile when handled, but still curious when alone in a new setting. • 4 Lack of curiosity, little or no response to stimuli, quite immobile. • 5 Labored breathing, inability or slow to self-right after being rolled onto back (moribund, sacrificed). • D Dead […]
A comparative trial was set up to compare peptide MTR and SEQ ID NO:2. The comparative trial comprised 6 groups of 6 animals; two groups (1A and 1B) receiving placebo (PBS), one group (2) peptide MTR (source Pepscan, Lelystad, NL), one group (3) receiving peptide MTR (source Ansynth), one group (4) receiving peptide SEQ ID NO:2 (source Pepscan) and one group peptide SEQ ID NO:2 (source Ansynth). Peptide/placebo in these groups was administered 2 hours after LPS. LPS (source) was used at 10-11 mg/kg. Sickness scores were done at 0, 2, 22 26 42 and 48 hours after LPS injection.

[2] = test system: mice, 25 minutes renal ischemia/reperfusion; experiment: Mouse renal ischemia reperfusion test (mortality, BUN/serum urea); type: in vivo; design: BUN, mean / Urea level: unit not given here; conditions: 5 mg/kg i.v.
Method: SEQ ID NO:2 was tested and compared with PBS (control) in a double blind animal study for the peptide's relative ability to aid recovery in a mouse renal ischemia reperfusion test. In this test, the mice were anesthetized, and one kidney from each mouse was removed. The other kidney was tied off for 25 minutes, and the serum urea levels were allowed to increase. Both before and after tying off, the peptide was administered to thirty (30) different mice (5 mg oligopeptide/kg body mass intravenously), after which, the mortality of the mice was determined for each oligopeptide as well as was the BUN concentration at two hours, 24 hours and 72 hours.
Under inhalation anesthesia, the left kidney with its artery and vein was isolated and occluded for 25 minutes using a microvascular clamp. During surgery animals were placed on a heating path to maintain body temperature at 37° C. Five minutes before placing the clamp, and 5 minutes before releasing the clamp, 5 mg/kg of peptide, dissolved in 0.1 mL of sterile saline, was administered intravenously. After reperfusion of the left kidney the right kidney was removed. Kidney function was assessed by measuring blood urea nitrogen before clamping, and at 2, 24, and 72 hours after reperfusion.
To determine dose-response relationships SEQ ID NO:2, was tested in a dose-response manner in the mice test as described above. Peptides were tested at 0.3, 1, 3, 10 and 30 mg/kg dosages given as described in Example I. Serum urea levels are presented in Table 3.

[3] = test system: RAW 264.7 murine macrophage cell line; experiment: Nitrite (NO) production in LPS-stimulated RAW 264.7 macrophages; type: cell-based; conditions: co-stimulated with LPS 10 microg/ml, peptide even at 1 pg/ml, 24 hours
Method: Cell culture. The RAW 264.7 murine macrophage cell line, obtained from American Type Culture Collection (Manassas, Va., USA), were cultured at 37° C. in 5% CO2 using DMEM containing 10% fetal calf serum (FCS), 50 U/ml penicillin, 50 μg/ml streptomycin, […] Na-pyruvate, 2 mM glutamine and 50 μM 2-mercaptoethanol (Bio Whittaker, Europe). The medium was changed every 2 days.
Nitrite measurements. Nitrite production was measured in the RAW 264.7 macrophage supernatants. The cells (7.5×10^5/ml) were cultured in 48-well plates in […] of culture medium. The cells were stimulated with LPS (10 microg/ml) and/or peptide (1 pg/ml, 1 ng/ml, 1 μg/ml) for 24 hours, then the culture media were collected. Nitrite was measured by adding 100 microl of Griess reagent (Sigma) to 100 microl samples of culture medium. The OD540 was measured using a microplate reader, and the nitrite concentration was calculated by comparison with the OD540 produced using standard solutions of sodium nitrite in the culture medium.

[4] = test system: mice, high dose LPS septic shock; conditions: single treatment after high dose LPS injection; cited from earlier work
[5] = peptide twice (t = 2 hr and 24 hr) 5 mg/kg, LPS dose 11, t = 24 hr
[6] = peptide twice (t = 2 hr and 24 hr) 5 mg/kg, LPS dose 11, t = 48 hr
[7] = single dose 5 mg/kg, LPS dose 7*, t = 24 hr
[8] = single dose 5 mg/kg, LPS dose 8, t = 24 hr
[9] = single dose 5 mg/kg, LPS dose 8, t = 48 hr
[10] = single dose 5 mg/kg, LPS dose 10, t = 24 hr
[11] = single dose 5 mg/kg, LPS dose 10, t = 48 hr

Substance: LQGV [tetrapeptide from loop 2 of the beta-subunit of hCG]
- effect against LPS-induced sepsis ([1]; 5 mg/kg i.p. after varying doses of LPS (Table 6)): marked protective effect
- number of mice with sickness score 5 ([1]; peptide twice (t = 2 hr and 24 hr) 5 mg/kg, LPS dose 10.5, t = 24 hr): 5
- number of mice with score D (dead) ([1]; peptide twice (t = 2 hr and 24 hr) 5 mg/kg, LPS dose 10.5, t = 48 hr): 5
- number of mice with sickness score 4 [1, 5]: 2
- number of mice with sickness score 5 [1, 5]: 4
- number of mice with score D (dead) [1, 6]: 4
- number of mice with sickness score 4 [1, 6]: 2
- number of mice with sickness score 1 ([1]; single dose 5 mg/kg, LPS dose 7**, t = 24 hr): 6
- number of mice with sickness score 1 ([1]; single dose 5 mg/kg, LPS dose 7**, t = 48 hr): 6
- number of mice with sickness score 1 [1, 7]: 2
- number of mice with sickness score 2 [1, 7]: 4
- number of mice with sickness score 1 ([1]; single dose 5 mg/kg, LPS dose 7*, t = 48 hr): 6
- number of mice with sickness score 1 [1, 8]: 3
- number of mice with sickness score 3 [1, 8]: 1
- number of mice with sickness score 2 ([1]; single dose 5 mg/kg, LPS dose 8, t = 24 hr, 5 mg/kg): 5 and 3
- number of mice with sickness score 0 [1, 9]: 4
- number of mice with sickness score 2 [1, 9]: 1
- number of mice with sickness score 1 [1, 10]: 2
- number of mice with sickness score 3 [1, 10]: 1
- number of mice with sickness score 4 [1, 10]: 1
- number of mice with score D (dead) [1, 11]: 1
- number of mice with sickness score 2 [1, 11]: 1
- number of mice with sickness score 1 ([1]; single dose 5 mg/kg, LPS dose 10, t = 48 hr, 5 mg/kg): 6 and 4
- % survival ([1]; single injection 5 mg/kg 2 hours after LPS (300 μg), time 0 hours): 100%
- % survival ([1]; single injection 5 mg/kg 2 hours after LPS, time 14 hours): 100%
- % survival ([1]; single injection 5 mg/kg 2 hours after LPS, time 24 hours): 100%
- % survival ([1]; single injection 5 mg/kg 2 hours after LPS, time 48 hours): 100%
- % survival ([1]; single injection 5 mg/kg 2 hours after LPS, time 84 hours): 100%
- % survival ([1]; single injection 5 mg/kg 24 hours after LPS (300 μg), time 0 hours): 100%
- % survival ([1]; single injection 5 mg/kg 24 hours after LPS, time 14 hours): 100%
- % survival ([1]; single injection 5 mg/kg 24 hours after LPS, time 24 hours): 100%
- % survival ([1]; single injection 5 mg/kg 24 hours after LPS, time 48 hours): 0%
- % survival ([1]; single injection 5 mg/kg 24 hours after LPS, time 84 hours): 0%
- BUN, mean ([2]; 2 hr after reperfusion): 17.53
- BUN, mean ([2]; 24 hr after reperfusion): 56.08
- BUN, mean ([2]; 72 hr after reperfusion): 73.18
- BUN, mean ([2]; t = 0 hr (before clamping)): 7.518
- NO production [3]: inhibited the production of NO

Substance: VLPALP [6-mer oligopeptide derived from the beta-chain of human chorionic gonadotropin hormone (Khan et al. 2002)]
- septic shock in mice [4]: inhibited septic shock in mice
